According to patent US6441036B1 (priority 1998, dated 2002):

How the values were obtained:
[1] = Body weight of normal rats after 12 weeks (Example 6); format: in vivo; settings: male Wistar rats, oral, 12 weeks of treatment
Procedure: 2 groups of 6 male Wistar Rats were randomly selected, and studied for weight development over a period of 12 week. The body weight of each Wistar rat was measured at the start of the experiment. All animals in both groups received individually the same amount of food (nutrition) during the experimental period of 12 weeks. All animals in one of the groups were orally administrated with the medicament comprising TTA. The other group was the control group (CMC). After the 12 week period the body weight of rats were measured again.

[2] = Intravenous glucose tolerance test (IVGTT); format: in vivo; settings: 5 weeks old Zucker (fa/fa) rats
Procedure: Male Zucker (fa/fa) rats (5 weeks old) were anaesthetised after a 5-hours fast, by intraperitoneal injection of sodium pentobarbital (50 mg/kg). The rats were injected with glucose (0.55 g/kg) in the saphenous vein and blood samples were collected from the tail vein in heparinized tubes at time 0, 5, 10, 15, 20 and 30 minutes after the glucose load. Samples were kept on ice, centrifuged and plasma was stored at −20° C. until analysis.

[3] = High fat diet feeding, adipose tissue weights (Example 5); format: in vivo, Wistar Charles River rats; settings: high fat diet + 0.4% TTA, three weeks; means ± SEM
Procedure: Male Wistar rats Charles River rats weighing 280-358 g were purchases from AnLab Ltd. (Prague, Czech Repubic) and housed in wire-mesh cages in a temperature (22±1° C.) and light-controlled (light from 7:00 a.m. to 7.00 p.m.) room. They were given free access to chow and water. Three rats were housed per cage. Weight gain and food intake were recorded daily.
High fat (HF): 1.9% gelatin, 5.7% wheat bran, 7.7% vitamins and minerals, 25.4% corn starch, 25.7% casein, 26.8% beef tallow and 7.1 % sunflower oil.
HF+TTA: Same +0.4% TTA dissolved in the beef tallow.
Male Wistar Charles River rats (280-360 g) were fed 3 different diets (see methods) for 3 weeks ad libitum. Afterwards, they were killed by decapitation, liver and epididymal adipose tissue pads were dissected out and weighed.

Tetradecylthioacetic acid [TTA]
Body weight gain [1]: 234 ± 20 g
IVGTT glucose curves (FIG. 7B) ([2]; TTA treated versus control): normal and comparable
Plasma insulin response to glucose (FIG. 7A) ([2]; glucose 0.55 g/kg i.v.): significantly lower
Epididymal adipose tissue [3]: 3.1 ± 0.2 g
Retroperitoneal adipose tissue [3]: 2.7 ± 0.2 g
